Source: patent publication US20240174690A1, “ANNULATED 2-AMINO-3-CYANO THIOPHENES AND DERIVATIVES FOR THE TREATMENT OF CANCER” (BOEHRINGER INGELHEIM INTERNATIONAL GMBH, priority 2021, published 2024)

Experiments:
[1] = system: KRAS G12C-dependent Ba/F3 cells; assay: Ba/F3 proliferation assay, KRAS G12C; format: cell-based; settings: Mus musculus, BaF3, 72 h, AlamarBlue
Summary of the method: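 Transforming KRAS G12 mutants replaced IL-3 dependence in retrovirally engineered Ba/F3 cells, with puromycin omitted about ten days before testing. Growth under compound was quantified with an AlamarBlue fluorescent viability stain, in duplicate, by curve fitting.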

CYP3A4 = CYP3A4 (Homo sapiens (Human), UniProt P08684); assay: Mechanism based inhibition of CYP3A4 assay (MBI 3A4); format: in vitro ADME; settings: hydroxy-midazolam formation after 30 min vs 0 min preincubation, 25 uM, human liver microsomes
Chain of CYP3A4 (P08684 whole entry): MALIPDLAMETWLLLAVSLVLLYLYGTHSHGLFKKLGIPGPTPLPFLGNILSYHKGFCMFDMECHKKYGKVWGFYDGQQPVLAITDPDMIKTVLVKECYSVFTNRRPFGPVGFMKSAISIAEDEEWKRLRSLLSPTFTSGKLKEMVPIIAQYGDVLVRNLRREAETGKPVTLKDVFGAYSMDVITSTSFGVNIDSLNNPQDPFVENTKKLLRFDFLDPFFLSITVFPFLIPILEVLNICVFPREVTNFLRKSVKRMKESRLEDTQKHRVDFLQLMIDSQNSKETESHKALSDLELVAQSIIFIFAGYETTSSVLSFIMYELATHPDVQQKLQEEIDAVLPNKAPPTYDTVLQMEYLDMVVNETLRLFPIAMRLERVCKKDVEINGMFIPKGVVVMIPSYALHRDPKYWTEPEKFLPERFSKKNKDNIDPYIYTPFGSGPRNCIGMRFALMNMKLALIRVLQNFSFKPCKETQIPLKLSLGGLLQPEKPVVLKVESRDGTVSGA
Summary of the method: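 Human CYP3A4 activity after 30 min vs 0 min preincubation with test compound; incubate then diluted 1:10 and midazolam added for a 15 min main incubation. Quenched with acetonitrile; hydroxy-midazolam quantified by LC/MS-MS and expressed as % of the 0 min preincubation formation.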

[2] = Caco-2 assay (permeability PappAB, PappBA, efflux ratio); format: in vitro ADME; settings: human, Caco-2, 10 μM test compound, pH 7.4; for Papp A→B at 90 min, 10 μM: apical to basolateral
Summary of the method: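 Confluent Caco-2 monolayers on filter supports, 0.25% BSA in both donor and receiver buffer; transport measured a-b and b-a. After 25-30 min preincubation at 37 °C, samples at 0, 30, 60, 90 min quantified by HPLC/MS/MS. Papp from receiver amount per time, filter area and initial donor concentration; efflux ratio = PappBA/PappAB.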

[3] = Metabolic (microsomal) stability assay, human liver microsomes (HLM); format: in vitro ADME; settings: predicted clearance as percent of liver blood flow, 1 μM
Summary of the method: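 LC-MS/MS tracked parent disappearance at 0, 5, 15, 30 and 60 min in NADPH-initiated incubations with 1 mg/mL human microsomal protein and 1 μM compound at 37°C, pH 7.5. First-order fits gave intrinsic clearance, which was scaled up and reported as % QH. NADPH-free controls were also run.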

Row | IC50 [1] [nM] | MBI 3A4 (CYP3A4) [%] | Papp A→B at 90 min, 10 μM [2] [×10⁻⁶ cm/s] | HLM QH [3] [%] | efflux ratio at 90 min, 10 μM ([2]; efflux ratio PappBA/PappAB, read-out: Caco ER) | Compound
1 | 54 | 71 | < 2.9 | <24 | – | C[C@H](Oc1cc(N2CC[C@@H](O)C2)nc(-c2noc3c2CCC[C@@]32CCCc3sc(N)c(C#N)c32)n1)[C@@H]1CCCN1C [II-66]
2 | 8 | 85 | 6.5 | <24 | 7.3 | C[C@H](Oc1cc(-c2ccn(C)n2)nc(-c2noc3c2CCC[C@@]32CCCc3sc(N)c(C#N)c32)n1)[C@@H]1CCCN1C [II-96]
